Results taken from US11168054B2, “Biaromatic compounds, which are vitamin D analogs” (DSM IP ASSETS B.V., priority 2015, dated 2021).

molecular target: T1, ligand-binding domain of the human VDR linked to the DNA-binding domain of the yeast transcription factor GAL4 (Homo sapiens, UniProt P11473); assay: Human vitamin D receptor (VDR) agonist activity, cell based GAL4 hybrid luciferase transactivation assay; settings: HEK293 cells transiently transfected with VDR-LBD/GAL4 hybrid receptor and pFR-Luc reporter; 16 h incubation; luciferase luminescence; read-out: Effective concentrations of half maximal activation (EC50)
T1 construct: expressed in transfected cells; host or cells: HEK293
T1 sequence (P11473 127-423 limits assumed): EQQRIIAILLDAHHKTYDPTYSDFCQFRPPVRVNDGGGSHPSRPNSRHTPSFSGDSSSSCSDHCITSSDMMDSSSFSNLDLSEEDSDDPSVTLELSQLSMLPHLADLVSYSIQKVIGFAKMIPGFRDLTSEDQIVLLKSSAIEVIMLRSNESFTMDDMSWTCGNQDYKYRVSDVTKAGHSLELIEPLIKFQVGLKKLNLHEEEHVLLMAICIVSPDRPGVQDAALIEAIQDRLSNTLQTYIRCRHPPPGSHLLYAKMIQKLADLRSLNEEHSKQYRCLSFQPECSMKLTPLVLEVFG
Text: By way of example, the human vitamin D receptor (VDR) agonist activity of the claimed compounds can be tested using a cell based transactivation assay in an eukaryotic cell line. After a co-transfection, using a reporter plasmid construct and a hybrid receptor construct containing the ligand-binding domain of the human VDR linked to the DNA-binding domain of the yeast transcription factor GAL4, the cultured cells were stimulated by the VDR agonists. The hybrid VDR-GAL4 receptor binds the VDR agonists and transactivates luciferase reporter expression through the GAL4-response elements in the promoter of the luciferase gene (reporter construct). The VDR agonist binding and transactivation is determined by measuring the luciferase luminescence activity. The effective concentration of half maximal activation (EC50) was determined for the VDR agonists by means of dose-response experiments. The details of the protocol method of this test according to the invention are described in the example section.
Testing of the Human Vitamin D Receptor (VDR) Agonist Activity of the Compounds
The transient transfections were performed in HEK293 cells (ATCC, Molsheim, France) grown in minimum essential medium (Eagle) with Earle's balanced salt solution without L-glutamine and supplemented with 10% fetal bovine serum (Sigma-Aldrich Corp., St. Gallen, Switzerland), 2 mM glutamax (Life Technologies AG, Basel, Switzerland), 0.1 mM non-essential amino acids (Life Technologies), and 1 mM sodium pyruvate (Life Technologies) at 37° C. in 5% CO2. […] The cells were transiently transfected before stimulation the next day at >80% confluence by polyethylene-imine-based transfection. Compound stocks were prepared in DMSO, pre-diluted in PBS (0.45% final DMSO concentration), and added in the respective dilution 5 h after the addition of the transfection mixture onto the cells. The cells were again incubated for additional 16 h before firefly and renilla luciferases activity was measured sequentially in the same cell extract using buffers according to established protocols (Promega AG, Dübendorf, Switzerland). Transfection efficiency was controlled to the pRL-TK renilla luciferase reporter expression.

| SMILES | EC50 [nM] |
| --- | --- |
| CCCC1C(O)c2ccc(CCc3cccc(/C(=C/C=C/C(O)(CC)CC)CC)c3)cc2C1O (stereo not shown) [Comp1, reference compound] | 210 |
| CC/C(=C\C=C\C(O)(CC)CC)c1cccc(CCc2ccc3c(c2)C(O)C(C)C3O)c1 (stereo not shown) [I-b, 5-(3-((3E,5E)-7-ethyl-7-hydroxynona-3,5-dien-3-yl)phenethyl)-2-methyl-2,3-dihydro-1H-indene-1,3-diol] | 34 |
| CC/C(=C\C=C\C(O)(CC)CC)c1cccc(CCc2ccc3c(c2)C(O)C(C)(C)C3O)c1 (stereo not shown) [I-a, (5-(3-((3E,5E)-7-ethyl-7-hydroxynona-3,5-dien-3-yl)phenethyl)-2,2-dimethyl-2,3-dihydro-1H-indene-1,3-diol)] | 14 |
| CC/C(=C\C=C\C(O)(CC)CC)c1cccc(CCc2ccc3c(c2)C(O)CC3O)c1 (stereo not shown) [I-c, 5-(3-((3E,5E)-7-ethyl-7-hydroxynona-3,5-dien-3-yl)phenethyl)-2,3-dihydro-M-indene-1,3-diol] | 49 |
